Reference: publication PMC4197335, “Cancer-Selective Targeting of the NF-κB Survival Pathway with GADD45β/MKK7 Inhibitors” (Cancer Cell, 2014)
Read-outs that look alike come from different tables or passages of the source. Each block holds one compound with its values, some of them ahead of it. Where a SMILES comes first, the peptide text is derived from it. [ ]: non-standard residue; d: D form. The star is where a group is joined. ClZ = O=C(OCc1ccccc1Cl)*; Cbz = O=C(OCc1ccccc1)*

Target: T1, GADD45β/MKK7 complex (Homo sapiens, UniProt O14733)
T1 construct: Full-length human (h)MKK7 was expressed as a protein fused to an N-terminal GST tag (GST-MKK7); made in house
T1 sequence (O14733 1-419): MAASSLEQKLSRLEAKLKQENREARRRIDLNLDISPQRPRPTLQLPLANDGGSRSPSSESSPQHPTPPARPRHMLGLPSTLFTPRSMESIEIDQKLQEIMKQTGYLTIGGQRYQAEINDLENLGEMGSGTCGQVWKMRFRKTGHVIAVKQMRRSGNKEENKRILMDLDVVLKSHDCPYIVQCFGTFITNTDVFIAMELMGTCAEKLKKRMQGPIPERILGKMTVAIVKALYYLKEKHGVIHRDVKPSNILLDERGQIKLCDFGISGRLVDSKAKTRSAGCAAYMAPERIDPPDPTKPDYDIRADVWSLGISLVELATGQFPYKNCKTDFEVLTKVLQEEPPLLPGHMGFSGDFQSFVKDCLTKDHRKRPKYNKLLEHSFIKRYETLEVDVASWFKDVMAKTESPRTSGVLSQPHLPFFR
Test: ELISA GADD45β/MKK7 competition assay
Assay type: binding
Conditions: for inhibition at 0.01 µM: peptide at 10 nM
Description: Additional details are provided in Supplemental Experimental Procedures.
(1:1,000) and the HRP chromogenic substrate, o -phenylenediamine (OPD). GST -coated wells wer e […]
The ELISA competition screen used f or the isolation of antagonists of the GADD45β /MKK7 […]
The library deconvolution strategy used for this screen was described previously […]
General information about this type of screens can be found elsewhere […]
Values were expressed as the percentage of inhibition of His6-hGADD45β binding to GST-hMKK7 relative to the binding measured in the absence of […]
Dose-response, ELISA GADD45β /MKK7 competition assays were carried out under similar […]
As part of the SAR analysis and lead optimization process, where appropriate, competitors were tested at a concentration up to 100 nM. In order to determine their stability in biolog ical f luids , peptides were incubated at the concentration of 10 µM in […]
calculated using at least 7 concentrations of peptide and def ined as the mean concentration of peptide […]
the absence of competitor. W here indicated, values were expressed as the percentage of inhibition of His 6 -hGADD45β binding to GST-hMKK7 relative to the binding measured in the absence of competitor.
GST was used as a control in all the experiments. […]
tetrapeptide used as negative control in some of the ELISA and cellular assays was as f ollows: z -DNC, z-T yr -Asp-His-Gln-NH 2 . […]

[1] = Table S2, peptide at 42 nM, read-out: % inhibition (ELISA)
[2] = Table S4, read-out: IC50s (ELISA)
[3] = Figure 3A, before preincubation with human serum, read-out: IC50
[4] = Figure 3B, after a 48 hr preincubation with human serum, read-out: IC50
[5] = Table S4, values marked (##), read-out: % inhibition of (ELISA)
[6] = Table S3, read-out: % inhibition (ELISA)
[7] = Table S3, read-out: IC50 (ELISA)
[8] = Table S4, values marked (#), peptide at 42 nM, read-out: % inhibition of (ELISA)

Compound: CC(=O)N[C@@H](Cc1c[nH]c2ccccc12)C(=O)N[C@@H](CC(=O)O)C(=O)N[C@@H](CCCCN)C(=O)N[C@@H](Cc1ccccc1)C(N)=O [Ac-WDKF-NH2] (Ac-WDKF-NH2)
inhibition at 0.042 µM [1]: 25%

Compound: CC(=O)N[C@H](Cc1ccc(O)cc1)C(=O)N[C@H](CC(=O)O)C(=O)N[C@H](Cc1c[nH]cn1)C(=O)N[C@H](Cc1ccccc1)C(N)=O [Ac-DTP1, Ac-Tyr-Asp-His-Phe-NH2]
IC50 [3]: 0.19 nM
IC50 [4]: 0.2 nM

Compound: CC(=O)N[C@@H](Cc1ccc(O)cc1)C(=O)N[C@@H](CCC(=O)O)C(=O)N[C@@H](CCCNC(=N)N)C(=O)N[C@@H](Cc1ccccc1)C(N)=O [Ac-LTP2, Ac-YERF-NH2]
IC50 [4]: > 10 nM
inhibition at 0.042 µM [1]: 93%
IC50 [2]: 0.4 nM

Compound: CC(=O)N[C@@H](Cc1ccc(O)cc1)C(=O)N[C@@H](CC(=O)O)C(=O)N[C@@H](CCCCN)C(=O)N[C@@H](Cc1c[nH]c2ccccc12)C(N)=O [Ac-YDKW-NH2] (Ac-YDKW-NH2)
inhibition at 0.042 µM [1]: 43%
IC50 [2]: > 10 nM

Compound: CC(=O)N[C@@H](Cc1c[nH]c2ccccc12)C(=O)N[C@@H](CC(=O)O)C(=O)N[C@@H](CCCCN)C(=O)N[C@@H](Cc1c[nH]c2ccccc12)C(N)=O [Ac-WDKW-NH2] (Ac-WDKW-NH2)
inhibition at 0.042 µM [1]: 69%
IC50 [2]: < 42 nM

Compound: Ac-YDKF-NH2
% inhibition (ELISA) (Table S2, peptide at 42 nM): 34%

Compound: CC(=O)N[C@@H](Cc1c[nH]c2ccccc12)C(=O)N[C@@H](CCC(=O)O)C(=O)N[C@@H](CCCNC(=N)N)C(=O)N[C@@H](Cc1ccccc1)C(N)=O [Ac-WERF-NH2] (Ac-WERF-NH2)
inhibition at 0.042 µM [1]: 28%
IC50 [2]: > 42 nM

Compound: NC(=O)[C@@H](Cc1ccccc1)NC(=O)[C@@H](Cc1c[nH]cn1)NC(=O)[C@H](N)Cc1ccc(O)cc1 [H-YHF-NH2]
IC50 [2]: 0.65 nM

Compound: N=C(N)NCCC[C@@H](NC(=O)[C@@H](CCC(=O)O)NC(=O)[C@@H](Cc1ccc(O)cc1)NC(=O)OCc1ccccc1Cl)C(=O)N[C@H](Cc1ccccc1)C(N)=O [2CI-z-YERF-NH2] (ClZ-[dY][dE][dR][dF]-NH2)
inhibition at 0.01 µM [6]: 38%
IC50 [7]: > 10 nM

Compound: CC(=O)N[C@@H](Cc1c[nH]c2ccccc12)C(=O)N[C@@H](CCC(=O)O)C(=O)N[C@@H](CCCCN)C(=O)N[C@@H](Cc1ccccc1)C(N)=O [Ac-WEKF-NH2] (Ac-WEKF-NH2)
inhibition at 0.042 µM [1]: 65%
IC50 [2]: < 42 nM

Compound: Ac-YDRF-NH2
% inhibition (ELISA) (Table S2, peptide at 42 nM): 45%

Compound: CC(=O)NC(C)C(=O)NC(CCC(=O)O)C(=O)NC(CCCNC(=N)N)C(=O)NC(Cc1ccccc1)C(N)=O (stereo not shown) [Ac-AERF-NH2] (Ac-AERF-NH2; configuration not given here)
inhibition at 0.042 µM [8]: 7%

Compound: CC(=O)N[C@@H](Cc1c[nH]c2ccccc12)C(=O)N[C@@H](CCC(=O)O)C(=O)N[C@@H](CCCCN)C(=O)N[C@@H](Cc1c[nH]c2ccccc12)C(N)=O [Ac-WEKW-NH2] (Ac-WEKW-NH2)
inhibition at 0.042 µM [1]: 58%
IC50 [2]: < 42 nM

Compound: Ac-YDRW-NH2
% inhibition (ELISA) (Table S2, peptide at 42 nM): 43%

Compound: CC(=O)N[C@H](Cc1ccc(O)cc1)C(=O)N[C@H](CC(=O)O)C(=O)N[C@H](Cc1c[nH]cn1)C(=O)N[C@H](CCC(N)=O)C(=O)N[C@H](CCCCNC(=O)OCc1ccccc1)C(N)=O [Ac-YDHQK(εZ)-NH2] (Ac-[dY][dD][dH][dQ][dK](Cbz)-NH2)
inhibition at 0.01 µM [6]: 2%
IC50 [7]: > 10 nM

Compound: NC(=O)CC[C@@H](NC(=O)[C@@H](Cc1c[nH]cn1)NC(=O)[C@@H](CC(=O)O)NC(=O)[C@@H](Cc1ccc(O)cc1)NC(=O)OCc1ccccc1Cl)C(N)=O [2CI-z-YDHQ-NH2] (ClZ-[dY][dD][dH][dQ]-NH2)
inhibition at 0.01 µM [6]: 40%
IC50 [7]: > 10 nM

Compound: CC(=O)N[C@@H](Cc1c[nH]c2ccccc12)C(=O)N[C@@H](CC(=O)O)C(=O)N[C@@H](Cc1c[nH]cn1)C(=O)N[C@@H](Cc1ccccc1)C(N)=O [Ac-WDHF-NH2] (Ac-WDHF-NH2)
inhibition at 0.042 µM [1]: 28%
IC50 [2]: > 42 nM

Compound: NC(=O)[C@@H](Cc1ccccc1)NC(=O)[C@@H](Cc1c[nH]cn1)NC(=O)[C@@H](CC(=O)O)NC(=O)[C@@H](Cc1ccc(O)cc1)NC(=O)OCc1ccccc1Cl [2CI-z-YDHF-NH2] (ClZ-[dY][dD][dH][dF]-NH2)
inhibition at 0.01 µM [6]: 38%
IC50 [7]: > 10 nM

Compound: N=C(N)NCCC[C@@H](NC(=O)[C@H](N)Cc1ccc(O)cc1)C(=O)N[C@H](Cc1ccc(O)cc1)C(N)=O [H-YRY-NH2]
IC50 [2]: 0.75 nM

Compound: CC(=O)N[C@H](Cc1ccc(O)cc1)C(=O)N[C@H](C)C(=O)N[C@H](CCCNC(=N)N)C(=O)N[C@H](Cc1ccccc1)C(N)=O [Ac-YARF-NH2] (Ac-[dY][dA][dR][dF]-NH2)
inhibition at 0.042 µM (read-out: % inhibition of (ELISA)): 17%

Compound: CC(=O)N[C@@H](Cc1ccc(O)cc1)C(=O)N[C@@H](CC(=O)O)C(=O)N[C@@H](Cc1c[nH]cn1)C(=O)N[C@@H](Cc1ccccc1)C(N)=O [Ac-LTP1, Ac-YDHF-NH2]
IC50 [3]: 0.4 nM
IC50 [4]: > 10 nM
inhibition at 0.042 µM [1]: 94%

Compound: CC(=O)N1CCCC1C(=O)NC(CCC(=O)O)C(=O)NC(CCCNC(=N)N)C(=O)NC(Cc1ccccc1)C(N)=O (stereo not shown) [Ac-PERF-NH2] (Ac-PERF-NH2; configuration not given here)
inhibition at 0.01 µM [5]: 24%

Compound: CC(=O)N[C@@H](Cc1c[nH]c2ccccc12)C(=O)N[C@@H](CCC(=O)O)C(=O)N[C@@H](Cc1c[nH]cn1)C(=O)N[C@@H](Cc1c[nH]c2ccccc12)C(N)=O [Ac-WEHW-NH2] (Ac-WEHW-NH2)
inhibition at 0.042 µM [1]: 75%
IC50 [2]: < 42 nM

Compound: CC(=O)N[C@H](Cc1ccc(O)cc1)C(=O)N[C@H](CC(=O)O)C(=O)N[C@H](Cc1c[nH]cn1)C(=O)N[C@H](Cc1ccccc1)C(=O)N[C@H](CCCCNC(=O)OCc1ccccc1)C(N)=O [Ac-YDHFK(εZ)-NH2] (Ac-[dY][dD][dH][dF][dK](Cbz)-NH2)
inhibition at 0.01 µM [6]: 8%
IC50 [7]: > 10 nM

Next, values leading:

inhibition at 0.042 µM [1]: 64%
IC50 [2]: < 42 nM
Compound: CC(=O)N[C@@H](Cc1ccc(O)cc1)C(=O)N[C@@H](CCC(=O)O)C(=O)N[C@@H](Cc1c[nH]cn1)C(=O)N[C@@H](Cc1c[nH]c2ccccc12)C(N)=O [Ac-YEHW-NH2] (Ac-YEHW-NH2)

% inhibition (ELISA) (Table S2, peptide at 42 nM): 27%
Compound: Ac-YERW-NH2

inhibition at 0.01 µM [5]: 28%
Compound: CC(=O)N[C@H](Cc1ccc(O)cc1)C(=O)N[C@H](CCC(=O)O)C(=O)N[C@H](CCCNC(=N)N)C(=O)N[C@H](C)C(N)=O [Ac-YERA-NH2] (Ac-[dY][dE][dR][dA]-NH2)

inhibition at 0.01 µM [6]: 84%
Compound: NC(=O)[C@@H](Cc1ccccc1)NC(=O)[C@@H](Cc1c[nH]cn1)NC(=O)[C@@H](CC(=O)O)NC(=O)[C@@H](Cc1ccc(O)cc1)NC(=O)OCc1ccccc1 [z-DTP1, z-YDHF-NH2] (Cbz-[dY][dD][dH][dF]-NH2)

inhibition at 0.01 µM [6]: 58%
IC50 [7]: < 10 nM
Compound: NC(=O)[C@@H](Cc1ccccc1)NC(=O)[C@@H](Cc1c[nH]cn1)NC(=O)[C@@H](CC(=O)O)NC(=O)[C@@H](Cc1ccc(O)cc1)NC(=O)OCC1c2ccccc2-c2ccccc21 [Fmoc-YDHF-NH2]

inhibition at 0.042 µM [1]: 64%
IC50 [2]: < 42 nM
Compound: CC(=O)N[C@@H](Cc1ccc(O)cc1)C(=O)N[C@@H](CCC(=O)O)C(=O)N[C@@H](CCCCN)C(=O)N[C@@H](Cc1ccccc1)C(N)=O [Ac-YEKF-NH2] (Ac-YEKF-NH2)

inhibition at 0.01 µM [6]: 19%
Compound: NC(=O)CC[C@@H](NC(=O)[C@@H](Cc1c[nH]cn1)NC(=O)[C@@H](CC(=O)O)NC(=O)[C@@H](Cc1ccc(O)cc1)NC(=O)OCC1c2ccccc2-c2ccccc21)C(N)=O [Fmoc-YDFQ-NH2]

inhibition at 0.042 µM [8]: 13%
Compound: CC(=O)N[C@H](Cc1ccc(O)cc1)C(=O)N[C@H](CCC(=O)O)C(=O)N[C@H](C)C(=O)N[C@H](Cc1ccccc1)C(N)=O [Ac-YEAF-NH2] (Ac-[dY][dE][dA][dF]-NH2)

inhibition at 0.01 µM [6]: 84%
IC50 [7]: > 10 nM
Compound: COC(=O)C[C@@H](NC(=O)[C@@H](Cc1ccc(O)cc1)NC(=O)OCc1ccccc1)C(=O)N[C@H](Cc1c[nH]cn1)C(=O)N[C@H](Cc1ccccc1)C(N)=O [z-YD(O-methyl)HF-NH2] (Cbz-[dY][dD](OMe)[dH][dF]-NH2)

inhibition at 0.042 µM [1]: 22%
IC50 [2]: > 42 nM
Compound: CC(=O)N[C@@H](Cc1ccc(O)cc1)C(=O)N[C@@H](CCC(=O)O)C(=O)N[C@@H](CCCCN)C(=O)N[C@@H](Cc1c[nH]c2ccccc12)C(N)=O [Ac-YEKW-NH2] (Ac-YEKW-NH2)

inhibition at 0.01 µM [6]: 3%
IC50 [7]: > 10 nM
Compound: COC(=O)C[C@@H](NC(=O)[C@@H](Cc1ccc(O)cc1)NC(=O)OCc1ccccc1)C(=O)N[C@H](Cc1c[nH]cn1)C(=O)N[C@H](CCC(N)=O)C(N)=O [z-YD(O-methyl)HQ-NH2] (Cbz-[dY][dD](OMe)[dH][dQ]-NH2)
